From PubChem BioAssay AID1963984 (Molecular Pharmacology Branch, DTP, NCI, 2024)
Where “and” joins values, the source holds several entries; their conditions need not be identical. Identical values can stand only once.

Tested on: 233499-124-R-J3-PDC spheroids with HUVEC/MSC, viability
Assay: Anticancer human tumor 233499-124-R-J3-PDC patient-derived colon adenocarcinoma cell line growth inhibition [PI3K]
Details: for viability, T/C: stronger effect = lower value
Procedure, shortened: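 Combination activity was assessed by viability in multicellular tumor spheroids carrying HUVEC and MSC components. Agents were tested with PI3K inhibitors from a Cmax-based top dose (or 10 microM) downward in half-log increments.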

[1] = curve of first compound, second compound 0.00316 µM
[2] = curve of first compound, second compound 0.01 µM
[3] = curve of first compound, second compound 0.0316 µM
[4] = curve of first compound, second compound 0.1 µM
[5] = curve of first compound, second compound 0.316 µM
[6] = curve of first compound, second compound 1 µM
[7] = second compound 0.00316 µM, first compound 0.0316 µM
[8] = second compound 0.00316 µM, first compound 0.1 µM
[9] = second compound 0.00316 µM, first compound 0.316 µM
[10] = second compound 0.00316 µM, first compound 1 µM
[11] = second compound 0.00316 µM, first compound 3.16 µM
[12] = second compound 0.00316 µM, first compound 10 µM
[13] = second compound 0.01 µM, first compound 0.0316 µM
[14] = second compound 0.01 µM, first compound 0.1 µM
[15] = second compound 0.01 µM, first compound 0.316 µM
[16] = second compound 0.01 µM, first compound 1 µM
[17] = second compound 0.01 µM, first compound 3.16 µM
[18] = second compound 0.01 µM, first compound 10 µM
[19] = second compound 0.0316 µM, first compound 0.0316 µM
[20] = second compound 0.0316 µM, first compound 0.1 µM
[21] = second compound 0.0316 µM, first compound 0.316 µM
[22] = second compound 0.0316 µM, first compound 1 µM
[23] = second compound 0.0316 µM, first compound 3.16 µM
[24] = second compound 0.0316 µM, first compound 10 µM
[25] = second compound 0.1 µM, first compound 0.0316 µM
[26] = second compound 0.1 µM, first compound 0.1 µM
[27] = second compound 0.1 µM, first compound 0.316 µM
[28] = second compound 0.1 µM, first compound 1 µM
[29] = second compound 0.1 µM, first compound 3.16 µM
[30] = second compound 0.1 µM, first compound 10 µM
[31] = second compound 0.316 µM, first compound 0.0316 µM
[32] = second compound 0.316 µM, first compound 0.1 µM
[33] = second compound 0.316 µM, first compound 0.316 µM
[34] = second compound 0.316 µM, first compound 1 µM
[35] = second compound 0.316 µM, first compound 3.16 µM
[36] = second compound 0.316 µM, first compound 10 µM
[37] = second compound 1 µM, first compound 0.0316 µM
[38] = second compound 1 µM, first compound 0.1 µM
[39] = second compound 1 µM, first compound 0.316 µM
[40] = second compound 1 µM, first compound 1 µM
[41] = second compound 1 µM, first compound 3.16 µM
[42] = second compound 1 µM, first compound 10 µM
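Also: spheroids exposed to agents for seven days before readout.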
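For viability, T/C in this document: percent viability relative to DMSO vehicle control taken as 100%.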

C[C@@H](NC(=O)c1ncnc(N)c1Cl)c1ncc(C(=O)Nc2cc(C(F)(F)F)c(Cl)cn2)s1 + COc1c(OCCCN2CCOCC2)ccc2c3n(c(=NC(=O)c4cnc(N)nc4)nc12)CCN3
IC50 [1]: > 10000 nM
IC50 [2]: > 10000 nM
IC50 [3]: > 10000 nM
IC50 [4]: > 10000 nM
IC50 [5]: < 31.6 nM
IC50 [6]: < 31.6 nM
viability, T/C [7]: 97.6%
viability, T/C [8]: 127%
viability, T/C [9]: 126%
viability, T/C [10]: 103%
viability, T/C [11]: 120%
viability, T/C [12]: 104%
viability, T/C [13]: 94.1%
viability, T/C [14]: 103%
viability, T/C [15]: 105%
viability, T/C [16]: 117%
viability, T/C [17]: 121%
viability, T/C [18]: 123%
viability, T/C [19]: 113%
viability, T/C [20]: 107%
viability, T/C [21]: 109%
viability, T/C [22]: 96.1%
viability, T/C [23]: 107%
viability, T/C [24]: 106%
viability, T/C [25]: 85.6%
viability, T/C [26]: 79.4%
viability, T/C [27]: 85.5%
viability, T/C [28]: 69.8%
viability, T/C [29]: 97.9%
viability, T/C [30]: 99.3%
viability, T/C [31]: 44.8%
viability, T/C [32]: 31.8%
viability, T/C [33]: 21%
viability, T/C [34]: 37.7%
viability, T/C [35]: 45.6%
viability, T/C [36]: 31.2%
viability, T/C [37]: 6.68%
viability, T/C [38]: 10.7%
viability, T/C [39]: 13.8%
viability, T/C [40]: 7.94%
viability, T/C [41]: 20%
viability, T/C [42]: 1.67%

CC(Cn1ccc(-c2ccc(C#N)c(Cl)c2)n1)NC(=O)c1cc(C(C)O)[nH]n1 (stereo not given) + COc1c(OCCCN2CCOCC2)ccc2c3n(c(=NC(=O)c4cnc(N)nc4)nc12)CCN3
IC50 [1]: > 10000 nM
IC50 [2]: > 10000 nM
IC50 [3]: > 10000 nM
IC50 [4]: 5040 nM
IC50 [5]: < 31.6 nM
IC50 [6]: < 31.6 nM
viability, T/C [7]: 92.3%
viability, T/C [8]: 107%
viability, T/C [9]: 102%
viability, T/C [10]: 102%
viability, T/C [11]: 101%
viability, T/C [12]: 96.8%
viability, T/C [13]: 91.7%
viability, T/C [14]: 98.2%
viability, T/C [15]: 73.9%
viability, T/C [16]: 102%
viability, T/C [17]: 98%
viability, T/C [18]: 86.5%
viability, T/C [19]: 86.6%
viability, T/C [20]: 98.5%
viability, T/C [21]: 100%
viability, T/C [22]: 95.3%
viability, T/C [23]: 77.1%
viability, T/C [24]: 95.3%
viability, T/C [25]: 83.7%
viability, T/C [26]: 74.1%
viability, T/C [27]: 70.4%
viability, T/C [28]: 79%
viability, T/C [29]: 55.1%
viability, T/C [30]: 42.4%
viability, T/C [31]: 30.9%
viability, T/C [32]: 35.2%
viability, T/C [33]: 32.5%
viability, T/C [34]: 28.4%
viability, T/C [35]: 23.6%
viability, T/C [36]: 27%
viability, T/C [37]: 14.8%
viability, T/C [38]: 12.6%
viability, T/C [39]: 7.23%
viability, T/C [40]: 8.58%
viability, T/C [41]: 5.75%
viability, T/C [42]: 5.05%

CC(=O)c1c(C)c2cnc(Nc3ccc(N4CCNCC4)cn3)nc2n(C2CCCC2)c1=O + Cc1nc(NC(=O)N2CCCC2C(N)=O)sc1-c1ccnc(C(C)(C)C(F)(F)F)c1
IC50 [3]: > 100 nM
IC50 [4]: > 100 nM
IC50 [5]: 65.9 nM
IC50 [6]: 58.2 nM
IC50 (curve of first compound, second compound 3.16 µM): 42 nM
IC50 (curve of first compound, second compound 10 µM): < 0.316 nM
viability, T/C (second compound 0.0316 µM, first compound 0.000316 µM): 98.6%
viability, T/C (second compound 0.0316 µM, first compound 0.001 µM): 93.2%
viability, T/C (second compound 0.0316 µM, first compound 0.00316 µM): 65.5%
viability, T/C (second compound 0.0316 µM, first compound 0.01 µM): 79.9%
viability, T/C [19]: 99.6%
viability, T/C [20]: 79.1%
viability, T/C (second compound 0.1 µM, first compound 0.000316 µM): 90.2%
viability, T/C (second compound 0.1 µM, first compound 0.001 µM): 90.2%
viability, T/C (second compound 0.1 µM, first compound 0.00316 µM): 74.7%
viability, T/C (second compound 0.1 µM, first compound 0.01 µM): 98%
viability, T/C [25]: 83%
viability, T/C [26]: 54.5%
viability, T/C (second compound 0.316 µM, first compound 0.000316 µM): 77.7%
viability, T/C (second compound 0.316 µM, first compound 0.001 µM): 89.7%
viability, T/C (second compound 0.316 µM, first compound 0.00316 µM): 86.6%
viability, T/C (second compound 0.316 µM, first compound 0.01 µM): 75%
viability, T/C [31]: 58.5%
viability, T/C [32]: 45.3%
viability, T/C (second compound 1 µM, first compound 0.000316 µM): 79.5%
viability, T/C (second compound 1 µM, first compound 0.001 µM): 67.9%
viability, T/C (second compound 1 µM, first compound 0.00316 µM): 80.6%
viability, T/C (second compound 1 µM, first compound 0.01 µM): 70%
viability, T/C [37]: 74.9%
viability, T/C [38]: 28.3%
viability, T/C (second compound 3.16 µM, first compound 0.000316 µM): 53.3%
viability, T/C (second compound 3.16 µM, first compound 0.001 µM): 57.2%
viability, T/C (second compound 3.16 µM, first compound 0.00316 µM): 76.4%
viability, T/C (second compound 3.16 µM, first compound 0.01 µM): 37.5%
viability, T/C (second compound 3.16 µM, first compound 0.0316 µM): 61.8%
viability, T/C (second compound 3.16 µM, first compound 0.1 µM): 28.2%
viability, T/C (second compound 10 µM, first compound 0.000316 µM): 27.8%
viability, T/C (second compound 10 µM, first compound 0.001 µM): 26.9%
viability, T/C (second compound 10 µM, first compound 0.00316 µM): 27.5%
viability, T/C (second compound 10 µM, first compound 0.01 µM): 34.6%
viability, T/C (second compound 10 µM, first compound 0.0316 µM): 36.9%
viability, T/C (second compound 10 µM, first compound 0.1 µM): 28%

CC1(C)CCC(CN2CCN(c3ccc(C(=O)NS(=O)(=O)c4ccc(NCC5CCOCC5)c([N+](=O)[O-])c4)c(Oc4cnc5[nH]ccc5c4)c3)CC2)=C(c2ccc(Cl)cc2)C1 + COc1c(OCCCN2CCOCC2)ccc2c3n(c(=NC(=O)c4cnc(N)nc4)nc12)CCN3
IC50 [1]: > 10000 nM
IC50 [2]: > 10000 nM
IC50 [3]: > 10000 nM
IC50 [4]: 8160 nM
IC50 [5]: < 31.6 nM
IC50 [6]: < 31.6 nM
viability, T/C [7]: 93.8%
viability, T/C [8]: 108%
viability, T/C [9]: 113%
viability, T/C [10]: 101%
viability, T/C [11]: 99%
viability, T/C [12]: 100%
viability, T/C [13]: 96.7%
viability, T/C [14]: 104%
viability, T/C [15]: 92%
viability, T/C [16]: 108%
viability, T/C [17]: 101%
viability, T/C [18]: 93.1%
viability, T/C [19]: 96.5%
viability, T/C [20]: 95%
viability, T/C [21]: 86.4%
viability, T/C [22]: 78.7%
viability, T/C [23]: 80.1%
viability, T/C [24]: 61.2%
viability, T/C [25]: 60.6%
viability, T/C [26]: 73.3%
viability, T/C [27]: 55.5%
viability, T/C [28]: 62.2%
viability, T/C [29]: 53.3%
viability, T/C [30]: 49.5%
viability, T/C [31]: 19.8%
viability, T/C [32]: 28.9%
viability, T/C [33]: 15.3%
viability, T/C [34]: 40.2%
viability, T/C [35]: 17.5%
viability, T/C [36]: 26.6%
viability, T/C [37]: 7.27%
viability, T/C [38]: 2.35%
viability, T/C [39]: 15.9%
viability, T/C [40]: 13.9%
viability, T/C [41]: 6.93%
viability, T/C [42]: 13.2%

Cn1ncc(Cl)c1-c1cc(C(=O)NC(CN)Cc2cccc(F)c2)sc1Cl (stereo not given)
viability, T/C (compound 0.0316 µM): 85.8% [middle of 4 runs]
viability, T/C (compound 0.1 µM): 102% (2×) and 85.4% and 93.9%
viability, T/C (compound 0.316 µM): 86.2% [middle of 4 runs]
viability, T/C (compound 1 µM): 89.6% [middle of 4 runs]
viability, T/C (compound 3.16 µM): 63.6% [middle of 4 runs]
viability, T/C (compound 10 µM): 32.4% [middle of 4 runs]
IC50 (curve of compound): 4.62 µM [middle of 4 runs]
